# Results: patent US20150218654A1, “METHODS FOR PREDICTING MULTIPLE MYELOMA TREATMENT RESPONSE” (INSERM (INSTITUT NATIONAL DE LA SANTÉ ET DE LA RE- CHERCHE …, priority 2012, published 2015)
# Values joined by “and” are separate entries in the source; they are usually repeats but may differ in a detail not shown here. Equal values may be shown once. Read-outs that look alike come from different tables or passages of the source.
# Assays:
# [1] = test system: human myeloma cell lines (HMCLs); assay: Growth assay for myeloma cells (Cell Titer Glo, 4 days, graded DNMTi concentrations); format: cell-based; settings: for IC50: Homo sapiens, 96 h, 4 days
# Experimental: HMCLs were cultured for 4 days in 96-well flat-bottom microtiter plates in RPMI 1640 medium, 10% FCS, 2 ng/ml IL-6 culture medium (control), with graded decitabine concentrations. Data are mean values plus or minus standard deviation (SD) of 5 experiments determined on sextuplet culture wells.
# HMCLs were cultured for 4 days in 96-well flat-bottom microtiter plates in RPMI 1640 medium, 10% FCS, 2 ng/ml IL-6 culture medium (control), and graded 5-azacitidine concentrations. Data are mean values plus or minus standard deviation (SD) of 5 experiments determined on sextuplet culture wells.
# HMCLs were cultured for 4 days in 96-well flat-bottom microtiter plates in RPMI 1640 medium, 10% FCS, 2 ng/ml IL-6 culture medium (control), with graded decitabine concentrations. Cell growth was evaluated by quantifying intracellular ATP amount with a Cell Titer Glo Luminescent Assay (Promega, Madison, Wis.) with a Centro LB 960 luminometer (Berthold Technologies, Bad Wildbad, Germany).
# The inventors sought to determine whether DM Score could predict for the sensitivity of 10 HMCLs to DNMT inhibitor. Starting from a large cohort of 40 HMCLs (22), the 10 HMCLs with the highest or lowest DM Score were selected to assay decitabine sensitivity.
# HMCLs were cultured with graded 5-azacitidine (Sigma, St. Louis, Mo.) concentrations. HMCLs cell growth was quantified with a Cell Titer Glo Luminescent Assay (Promega, Madison, Wis.) and half inhibitory concentration (IC50) was determined using GraphPad Prism (http://www.graphpad.com/scientific-software/prism/).
# [2] = Cell viability of HMCLs by trypan blue exclusion; format: cell-based, human; settings: human; for viability at 3 days, 0.5 μM: Day 3, mean ± SD; for viability at 7 days, 0.5 μM: Day 7, mean ± SD
# Experimental: (§1) The human MM cell lines XG-5, XG-6, XG-7, XG-20 and LP1 were grown in RPMI 1640 supplemented with 10% fetal bovine serum and 2 ng/ml recombinant IL-6. Cells (2×10^5/mL) were treated either with 0.5 μmol/L 5-Aza-2′-deoxycytidine (decitabine) (Sigma, St. Louis, Mo.) for 7 days.
# HMCLs = assay: Cell viability of HMCLs by trypan blue exclusion; format: cell-based, human; settings: five HMCLs, 0.5 μM for 7 days
# Experimental: as §1
# [3] = test system: primary myeloma cells of patients (CD138+ viable plasma cells); assay: Mononuclear cell culture of patients' tumor samples, count of viable CD138+ myeloma cells by flow cytometry; format: cell-based, human
# Experimental: Mononuclear cells from tumor samples of 12 patients with MM were cultured for 4 days in the presence of IL-6 (2 ng/ml) with or without graded decitabine concentrations. At day 4 of culture, the cell count and the viability were determined and the percentage of CD138^+ viable plasma cells was determined by flow cytometry. Black color represents patients with high DM Score (N=6) and white represents patients with low DM Score values (N=6).
# Mononuclear cells from tumor samples of 14 patients with MM were cultured for 4 days in the presence of IL-6 (2 ng/ml) with or without graded 5-azacitidine concentrations. At day 4 of culture, the count of viable CD138′ MMCs was determined using flow cytometry. The black columns represent the mean±SD of primary myeloma cell counts (expressed as the percentage of the count without adding 5-azcytidine) of the 7 patients with a low DM Score and the white columns that of the 7 patients with a high DM Score.
# Mononuclear cells from tumor samples of 12 patients with MM (agreement of the Center for Biological Resources of Montpellier University Hospital (N° DC-2008-417)) were cultured for 4 days at 2×10^5 cells/ml in RPMI 1640 medium, 10% FCS, 2 ng/ml IL-6, with or without graded concentrations of decitabine. In each culture group, viability and cell counts were assayed and MMCs were stained with an anti-CD138-PE mAb (Immunotech, Marseille, France) as previously described (32).
# Primary myeloma cells of 14 patients were cultured with or without graded concentrations of 5-azacitidine and MMC cytotoxicity evaluated using anti-CD138-PE mAb (Immunotech, Marseille, France) as described (Jourdan, et al 1998; Mahtouk, et al 2004; Moreaux, et al 2012).
# [4] = LP1 multiple myeloma cells, LP1, 0.5 μM decitabine
# [5] = XG-5 multiple myeloma cells, XG-5, 0.5 μM decitabine
# [6] = XG-6 multiple myeloma cells, XG-6, 0.5 μM decitabine
# [7] = XG-7 multiple myeloma cells, XG-7, 0.5 μM decitabine
# [8] = XG-20 multiple myeloma cells, XG-20, 0.5 μM decitabine
smiles,measurement,setting,value
"Nc1ncn([C@H]2C[C@H](O)[C@@H](CO)O2)c(=O)n1 [decitabine, 5-Aza-2′-deoxycytidine]",fold higher decitabine sensitivity,"[1]; HMCLs with highest DM Score versus low DM Score, P=0.01",11 fold
same,IC50,"[1]; decitabine, 5 HMCLs with low DM Score, read-out: IC50 range",2920 to 60800 nM
same,IC50,"[1]; read-out: IC50 range, decitabine, 5 HMCLs with the highest DM Score",150 to 2220 nM
same,IC50,"[1]; read-out: median IC50, decitabine, 5 HMCLs with low DM Score",7940 nM
same,IC50,"[1]; read-out: median IC50, decitabine, 5 HMCLs with the highest DM Score",680 nM
same,sensitivity class of HMCLs,"[1]; XG6, XG20, XG13, SKMM2, LP1 (lowest DM Score)",Resistant
same,sensitivity class of HMCLs,"[1]; XG12, XG16, XG19, JJN3, RPMI8226 (highest DM Score)",Sensitive
same,"viability at 3 days, 0.5 μM",[2]; [4],91 ± 2%
same,"viability at 7 days, 0.5 μM",[2]; [4],86 ± 4%
same,"viability at 3 days, 0.5 μM",[2]; [5],65 ± 5%
same,"viability at 7 days, 0.5 μM",[2]; [5],69 ± 6%
same,"viability at 3 days, 0.5 μM",[2]; [6],90 ± 1%
same,"viability at 7 days, 0.5 μM",[2]; [6],90 ± 1%
same,"viability at 3 days, 0.5 μM",[2]; [7],90 ± 2%
same,"viability at 7 days, 0.5 μM",[2]; [7],85 ± 5%
same,"viability at 3 days, 0.5 μM",[2]; [8],91 ± 3%
same,"viability at 7 days, 0.5 μM",[2]; [8],83 ± 5%
same,effect on myeloma cell viability,HMCLs,did not affect myeloma cell viability
same,"Myeloma cell number/culture well, Mean","[3]; 0.125 μM decitabine, day 4, mean of 6 patients with high DM Score",54391
same,"Myeloma cell number/culture well, Mean","[3]; 0.125 μM decitabine, day 4, mean of 6 patients with low DM Score",43748
same,Myeloma cell number/culture well,"[3]; 0.125 μM decitabine, day 4, single patients with high DM Score",43320 and 49096 and 40432 and 63536 and 69312 and 60648
same,Myeloma cell number/culture well,"[3]; 0.125 μM decitabine, day 4, single patients with low DM Score",26100 and 51984 and 77976 and 54336 and 1066 and 51024
same,"Myeloma cell number/culture well, Mean","[3]; 0.5 μM decitabine, day 4, mean of 6 patients with high DM Score",38622
same,"Myeloma cell number/culture well, Mean","[3]; 0.5 μM decitabine, day 4, mean of 6 patients with low DM Score",38834
same,Myeloma cell number/culture well,"[3]; 0.5 μM decitabine, day 4, single patients with high DM Score",36738 (2×) and 31086 and 28260 and 56520 and 42390
same,Myeloma cell number/culture well,"[3]; 0.5 μM decitabine, day 4, single patients with low DM Score",27195 and 45216 and 53694 and 51300 and 870 and 54726
same,"Myeloma cell number/culture well, Mean","[3]; 2 μM decitabine, day 4, mean of 6 patients with high DM Score",24024
same,"Myeloma cell number/culture well, Mean","[3]; 2 μM decitabine, day 4, mean of 6 patients with low DM Score",30672
same,Myeloma cell number/culture well,"[3]; 2 μM decitabine, day 4, single patients with high DM Score",20592 (2×) and 22880 and 18304 and 29744 and 32032
same,Myeloma cell number/culture well,"[3]; 2 μM decitabine, day 4, single patients with low DM Score",21028 and 32032 and 22880 and 51230 and 1044 and 55818
same,"Myeloma cell number/culture well, Mean","[3]; 8 μM decitabine, day 4, mean of 6 patients with high DM Score",12808
same,"Myeloma cell number/culture well, Mean","[3]; 8 μM decitabine, day 4, mean of 6 patients with low DM Score",26080
same,Myeloma cell number/culture well,"[3]; 8 μM decitabine, day 4, single patients with high DM Score",5800 and 11600 and 10150 and 18850 and 17400 and 13050
same,Myeloma cell number/culture well,"[3]; 8 μM decitabine, day 4, single patients with low DM Score",18265 and 21750 and 14500 and 53486 and 1039 and 47440
same,fold higher decitabine sensitivity,"[3]; primary MMCs with DM Score above median (−19.7) versus below median, P<0.01",2.2 fold
